For 36 compounds, IC50 results are on record in patent US11685732B2, “MYST family histone acetyltransferase inhibitors” (Epizyme, Inc., priority 2017, dated 2023).

Like-named read-outs stand apart in the source and are kept apart here.

For assay [1], the target named is KAT-7 (Homo sapiens (Human), UniProt O95251). The assay can be described thus: KAT-7 biochemical inhibition assay (SAMDI mass spectrometry). As for the experimental part:
(§1) KAT-7. Enzyme assay buffer was 50 mM Tris pH 8.0, 0.002% Tween20, 0.005% bovine skin gelatin, and 1 mM dithiothreitol (DTT). For determination of IC50 values, compounds were serially diluted with 2% (v/v) DMSO in the final reaction, pre-incubating each dilution of each compound with 40 μL of assay buffer containing KAT-7 enzyme (6 nM final concentration). 10 μL of assay buffer containing 1 μM peptide substrate and 2 μM acetyl coenzyme A (final concentrations) was added. Reactions (50 μL total) were then carried out at 25° C. for 120 minutes. Reactions were terminated by the addition of 0.5% formic acid (final concentration), and a sample of each reaction was analyzed by SAMDI Tech, Inc. (Chicago, Ill.) using self-assembled monolayer desorption/ionization time-of-flight mass spectrometry (Mrksich, M. (2008) Mass spectrometry of self-assembled monolayers: a new tool for molecular surface science. ACS Nano 2, 7-18).

For assay [2], the target named is KAT-6A (Homo sapiens (Human), UniProt Q92794). The assay can be described thus: KAT-6A biochemical inhibition assay (SAMDI mass spectrometry). As for the experimental part: as §1, with “KAT-6A. Enzyme” for “KAT-7. Enzyme”, “containing KAT-6A” for “containing KAT-7”, “enzyme (12.5” for “enzyme (6”, “and 1” for “and 2”, “for 90” for “for 120”
KAT-6A, sequence (Q92794 other isoform, or with tags, fused parts or gaps): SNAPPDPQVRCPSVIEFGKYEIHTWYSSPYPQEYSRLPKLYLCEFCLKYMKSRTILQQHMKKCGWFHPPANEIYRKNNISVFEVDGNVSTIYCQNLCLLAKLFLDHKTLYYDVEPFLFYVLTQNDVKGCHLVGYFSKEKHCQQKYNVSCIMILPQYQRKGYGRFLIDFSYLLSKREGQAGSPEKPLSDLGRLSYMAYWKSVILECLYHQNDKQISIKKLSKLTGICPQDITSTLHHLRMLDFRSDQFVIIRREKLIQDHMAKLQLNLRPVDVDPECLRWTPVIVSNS
The target in assay [3] is KAT-5 (Homo sapiens (Human), UniProt Q92993). Briefly: KAT-5 biochemical inhibition assay (SAMDI mass spectrometry). As for the experimental part: as §1, with “KAT-5. Enzyme” for “KAT-7. Enzyme”, “containing KAT-5” for “containing KAT-7”, “enzyme (9” for “enzyme (6”, “and 0.5” for “and 2”, “for 90” for “for 120”
KAT-5, sequence (Q92993 other isoform, or with tags, fused parts or gaps): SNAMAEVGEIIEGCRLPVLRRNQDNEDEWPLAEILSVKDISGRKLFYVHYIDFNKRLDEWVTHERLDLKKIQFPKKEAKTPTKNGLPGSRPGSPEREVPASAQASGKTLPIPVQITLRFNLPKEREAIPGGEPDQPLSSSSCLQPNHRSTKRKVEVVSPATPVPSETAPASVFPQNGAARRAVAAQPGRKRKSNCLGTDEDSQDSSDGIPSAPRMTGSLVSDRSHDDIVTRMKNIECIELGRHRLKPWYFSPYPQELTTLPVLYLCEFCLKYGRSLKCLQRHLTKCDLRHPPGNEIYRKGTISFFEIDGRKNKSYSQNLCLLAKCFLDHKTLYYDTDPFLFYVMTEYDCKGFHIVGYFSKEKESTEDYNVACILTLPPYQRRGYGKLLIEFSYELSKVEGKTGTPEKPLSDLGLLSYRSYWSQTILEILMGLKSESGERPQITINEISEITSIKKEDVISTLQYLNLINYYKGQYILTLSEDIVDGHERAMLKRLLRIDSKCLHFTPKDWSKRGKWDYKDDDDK

KAT-7, sequence (O95251 other isoform, or with tags, fused parts or gaps): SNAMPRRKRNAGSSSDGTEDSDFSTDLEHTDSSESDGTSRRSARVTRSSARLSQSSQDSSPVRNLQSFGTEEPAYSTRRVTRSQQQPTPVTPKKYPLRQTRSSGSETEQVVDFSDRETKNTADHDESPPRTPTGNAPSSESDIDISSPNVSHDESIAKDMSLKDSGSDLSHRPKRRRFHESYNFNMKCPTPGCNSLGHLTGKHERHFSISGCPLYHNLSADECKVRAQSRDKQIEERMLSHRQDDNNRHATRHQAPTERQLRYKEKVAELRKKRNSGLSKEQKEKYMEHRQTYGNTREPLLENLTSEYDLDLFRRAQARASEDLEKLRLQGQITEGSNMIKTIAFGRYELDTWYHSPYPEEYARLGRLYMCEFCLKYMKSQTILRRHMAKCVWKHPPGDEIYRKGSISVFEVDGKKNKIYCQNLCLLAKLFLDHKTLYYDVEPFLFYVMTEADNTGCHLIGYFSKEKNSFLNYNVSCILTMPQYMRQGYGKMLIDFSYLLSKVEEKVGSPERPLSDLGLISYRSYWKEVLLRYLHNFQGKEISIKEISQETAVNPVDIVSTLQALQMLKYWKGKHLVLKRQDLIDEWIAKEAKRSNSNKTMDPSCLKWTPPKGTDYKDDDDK

Take `Cc1cccc(-c2cc(Cl)c(F)c(C(=O)NNS(=O)(=O)CC3CN(C(=O)OC(C)(C)C)C3)c2)c1` [Compound A-12]: the IC50 (in general, the point on the concentration scale where inhibition reaches its midpoint) in assay [1] (Table 5) is ≤ 10 µM; in assay [2] (Table 5) it was 10 to 50 µM; in assay [3] (Table 5) it was 10 to 50 µM.
Turning to `Cc1cccc(-c2cc(Cl)c(F)c(C(=O)NNS(=O)(=O)CC3CNC3)c2)c1` [Compound A-13], the IC50 in assay [1] (Table 5) was 10 to 50 µM; in assay [2] (Table 5) it was > 100 µM; in assay [3] (Table 5), > 100 µM.
On to `Cc1cccc(-c2cc(Cl)c(F)c(C(=O)NNS(=O)(=O)CC3CN(C(=O)OC(C)(C)C)CCN3C(=O)OC(C)(C)C)c2)c1` (stereo not drawn) [Compound A-14], for which the 50% inhibitory concentration (IC50) in assay [1] (Table 5) is 10 to 50 µM; in assay [2] (Table 5), > 100 µM; in assay [3] (Table 5), > 100 µM.
Turning to `Cc1cccc(-c2cc(Cl)c(F)c(C(=O)NNS(=O)(=O)CC3CNCCN3)c2)c1` (stereo not drawn) [Compound A-15], the figures for the IC50 in assay [1] (Table 5), in assay [2] (Table 5) and in assay [3] (Table 5) were ≤ 10 µM, > 100 µM and > 100 µM, respectively.
`COc1cccc(S(=O)(=O)NNC(=O)c2cc(-c3ccccc3)cc(Cl)c2F)c1` [Compound A-16]: the IC50 in assay [1] (Table 5) is ≤ 1 µM; in assay [2] (Table 5), ≤ 1 µM; in assay [3] (Table 5) it was ≤ 10 µM.
As to `Cc1cccc(-c2cc(Cl)c(F)c(C(=O)NNS(=O)(=O)CC3CN(C)CCN3C)c2)c1` (stereo not drawn) [Compound A-17], the results for the IC50 in assay [1] (Table 5), in assay [2] (Table 5) and in assay [3] (Table 5) were ≤ 10 µM, 10 to 50 µM and > 100 µM, respectively.
Taken in the same sequence, the figures for `Cc1cccc(-c2cc(Cl)c(F)c(C(=O)NNS(=O)(=O)C3CCC(NC(=O)OC(C)(C)C)C3)c2)c1` (stereo not drawn) [Compound A-19] were ≤ 10 µM, 50 to 100 µM and 10 to 50 µM.
As for `Cc1cccc(-c2cc(Cl)c(F)c(C(=O)NNS(=O)(=O)C3CCC(N)C3)c2)c1` (stereo not drawn) [Compound A-20], the values for the IC50 in assay [1] (Table 5), in assay [2] (Table 5) and in assay [3] (Table 5) were 10 to 50 µM, > 100 µM and > 100 µM, respectively.
For the compound `Cc1cccc(-c2cc(Cl)c(F)c(C(=O)NNS(=O)(=O)CC3CCCCNC3)c2)c1` (stereo not drawn) [Compound A-21], the IC50 was ≤ 10 µM in assay [1] (Table 5), > 100 µM in assay [2] (Table 5) and > 100 µM in assay [3] (Table 5).
As for `Cc1cccc(-c2cc(Cl)c(F)c(C(=O)NNS(=O)(=O)CC3CCCCN(C(=O)OC(C)(C)C)C3)c2)c1` (stereo not drawn) [Compound A-22], the IC50 in assay [1] (Table 5) was ≤ 1 µM; in assay [2] (Table 5), 10 to 50 µM; in assay [3] (Table 5), 10 to 50 µM.
As to `Cc1cccc(-c2cc(Cl)c(F)c(C(=O)NNS(=O)(=O)C(C)C3CCCN(C(=O)OC(C)(C)C)C3)c2)c1` (stereo not drawn) [Compound A-23], the IC50 is ≤ 1 µM in assay [1] (Table 5), > 100 µM in assay [2] (Table 5) and > 100 µM in assay [3] (Table 5).
With `Cc1cccc(-c2cc(Cl)c(F)c(C(=O)NNS(=O)(=O)CC3CN(C)CCN3)c2)c1` (stereo not drawn) [Compound A-24], the IC50 in assay [1] (Table 5) was ≤ 10 µM; in assay [2] (Table 5), 10 to 50 µM; in assay [3] (Table 5), 50 to 100 µM.
In the case of `Cc1cccc(-c2cc(Cl)c(F)c(C(=O)NNS(=O)(=O)C(C)C3CCCNC3)c2)c1` (stereo not drawn) [Compound A-25], the values for the IC50 in assay [1] (Table 5), in assay [2] (Table 5) and in assay [3] (Table 5) were 10 to 50 µM, > 100 µM and > 100 µM, respectively.
For the compound `CNCCCS(=O)(=O)NNC(=O)c1cc(-c2cccc(C)c2)ccc1F` [Compound A-26], the IC50 in assay [1] (Table 5), in assay [2] (Table 5) and in assay [3] (Table 5) was > 100 µM throughout.
On to `CNCCCS(=O)(=O)NNC(=O)c1cc(-c2cccc(C)c2)cc(Cl)c1F` [Compound A-27], for which the IC50 in assay [1] (Table 5), in assay [2] (Table 5) and in assay [3] (Table 5) was > 100 µM in each case.
Consider `Cc1cc(-c2cccc(F)c2)cc(C(=O)NNS(=O)(=O)c2cccc(O)c2)c1F` [Compound A-28], for which the IC50 in assay [1] (Table 5), in assay [2] (Table 5) and in assay [3] (Table 5) was ≤ 1 µM in each case.
As to `O=C(NNS(=O)(=O)c1cccc(O)c1)c1cc(-c2ccccc2)cc(F)c1F` [Compound A-29], the 50% inhibitory concentration (IC50) in assay [1] (Table 5) was ≤ 1 µM; in assay [2] (Table 5) it was ≤ 1 µM; in assay [3] (Table 5), ≤ 10 µM.
`O=C(NNS(=O)(=O)c1cccc(O)c1)c1cc(-c2ccccc2)cc(Cl)c1F` [Compound A-31]: the IC50 in assay [1] (Table 5), in assay [2] (Table 5) and in assay [3] (Table 5) was ≤ 1 µM each time.
Turning to `Cc1cccc(-c2cc(Cl)c(F)c(C(=O)NNS(=O)(=O)CC3CNCCN3C)c2)c1` (stereo not drawn) [Compound A-32], the IC50 in assay [1] (Table 5) was 10 to 50 µM; in assay [2] (Table 5), > 100 µM; in assay [3] (Table 5), > 100 µM.
`Cn1cnc(-c2cc(Cl)c(F)c(C(=O)NNS(=O)(=O)CC3CCC(OCCO)CC3)c2)c1` (stereo not drawn) [Compound I-467]: the IC50 in assay [1], in assay [2] and in assay [3] was < 10 µM in each case.
As for `COc1cnc(S(=O)(=O)NNC(=O)c2cc(-c3cn(C)cn3)cc(Cl)c2F)c(F)c1` [Compound I-468], the IC50 in assay [2] and in assay [3] was < 10 µM each time.
Consider `Cn1cnc(-c2cc(Cl)c(F)c(C(=O)NNS(=O)(=O)CC3CN(C(=O)OC(C)(C)C)CCN3C(=O)OC(C)(C)C)c2)c1` (stereo not drawn) [Compound I-469], for which the IC50 in assay [2] and in assay [3] was > 100 µM each time.
In the case of `CC(=O)NCc1c(-c2cn(C)cn2)cc(C(=O)NNS(=O)(=O)CC2CCCCC2)c(F)c1Cl` [Compound I-470], the 50% inhibitory concentration (IC50) in assay [2] is 10 to 50 µM; in assay [3], > 100 µM.
For the compound `Cn1cnc(-c2cc(Cl)c(F)c(C(=O)NNS(=O)(=O)C[C@H]3CC[C@H](N(C)CC(F)(F)F)CC3)c2)c1` [Compound I-471], the IC50 in assay [1], in assay [2] and in assay [3] was < 10 µM throughout.
`Cn1cnc(-c2cc(Cl)c(F)c(C(=O)NNS(=O)(=O)CC3CNCCN3)c2)c1` (stereo not drawn) [Compound I-472]: the 50% inhibitory concentration (IC50) in assay [2] and in assay [3] was > 100 µM throughout.
Regarding `CN(CC(F)(F)F)C1CCCC(CS(=O)(=O)NNC(=O)c2cc(-c3cn(C)cn3)cc(Cl)c2F)C1` (stereo not drawn) [Compound I-473], the figures for the IC50 in assay [1], in assay [2] and in assay [3] were < 10 µM, 10 to 50 µM and < 10 µM, respectively.
Regarding `Cn1cnc(-c2cc(Cl)c(F)c(C(=O)NNS(=O)(=O)Cc3nn(C)cc3Cl)c2)c1` [Compound I-474], the IC50 in assay [1], in assay [2] and in assay [3] was < 10 µM throughout.
For `Cn1cnc(-c2cc(C(=O)NNS(=O)(=O)CC3CCCCC3)c(F)c(Cl)c2N(C(=O)OC(C)(C)C)C(=O)OC(C)(C)C)c1` [Compound I-475], the results for the IC50 in assay [1], in assay [2] and in assay [3] were 50 to 100 µM, > 100 µM and > 100 µM, respectively.
As for `Cn1cnc(-c2cc(C(=O)NNS(=O)(=O)CC3CCCCC3)c(F)c(Cl)c2N)c1` [Compound I-476], the IC50 in assay [1], in assay [2] and in assay [3] was < 10 µM in each case.
With `Cn1cnc(-c2cc(Cl)c(F)c(C(=O)NNS(=O)(=O)Cc3c(Cl)cnn3C)c2)c1` [Compound I-477], the figures for the IC50 in assay [2] and in assay [3] were 10 to 50 µM and < 10 µM, respectively.
As for `CCc1cccc(S(=O)(=O)NNC(=O)c2cc(-c3ccccn3)cc(Cl)c2F)c1` [Compound I-478], the IC50 in assay [1], in assay [2] and in assay [3] was < 10 µM each time.
In the case of `Cn1cnc(-c2cc(Cl)c(F)c(C(=O)NNS(=O)(=O)Cc3ccn(C)n3)c2)c1` [Compound I-479], the IC50 in assay [1], in assay [2] and in assay [3] was < 10 µM in each case.
Consider `Cn1cnc(-c2cc(Cl)c(F)c(C(=O)NNS(=O)(=O)Cc3ccnn3C)c2)c1` [Compound I-480], for which the half-maximal inhibitory concentration (IC50) was < 10 µM in assay [1], 10 to 50 µM in assay [2] and 10 to 50 µM in assay [3].
For the compound `O=C(NNS(=O)(=O)c1cccc(O)c1)c1cc(-c2ccccn2)cc(Cl)c1F` [Compound I-481], the IC50 in assay [1], in assay [2] and in assay [3] was < 10 µM in each case.
Consider `Cn1cnc(-c2cc(Cl)c(F)c(C(=O)NNS(=O)(=O)Cc3ccnn3C)c2)c1` [Compound I-482], for which the IC50 in assay [2] and in assay [3] was 10 to 50 µM throughout.
As for `CCc1cc(O)cc(S(=O)(=O)NNC(=O)c2cc(-c3ccccn3)cc(Cl)c2F)c1` [Compound I-483], the IC50 in assay [1], in assay [2] and in assay [3] was < 10 µM throughout.
